The values that follow come from ChEMBL document CHEMBL1147638, “(+/-)-cis-(6-Ethyl-tetrahydropyran-2-yl)-formic acid: a novel substance with antinociceptive properties” (2004).

Test [1] concerns Mus musculus. Description: Increase in analgesic activity of compound after oral administration in mouse when compared with morphine in tail flick test. The class given is functional. A general note: In hot-plate and tail-flick tests a longer latency is read as antinociception.
In test [2] the test system is Mus musculus. Description: Increase in antinociceptive activity in mouse after oral administration at the dose of 1 mg/kg in tail flick test. It counts as functional.

On to `CC[C@@H]1CCC[C@H](C(=O)O)O1`, for which the Increase is recorded as 55% in test [1] and 40% in test [2].
